Data set [1] has as its target T1, MDR1 (multi-drug resistance-1) (Homo sapiens, UniProt P08183).
T1 construct: gene ABCB1; transient over-expression from pCMV3-MDR1 in HCT-8 cells
Description: cell tolerance (viability) assay, MDR1-overexpressing vs vector HCT-8 cells, reversed by elacridar. The class given is cell-based.

A further data set concerns the target MBP-CpeIF4A (Cryptosporidium parvum, UniProt F0X401 1-405). Kind of data set: RNA alone, no ATP, no Roc-A; TSA: 90 mM Na2HPO4, 10 mM NaH2PO4, 2 mM DTT, pH 7.8, 5 uM MBP-CpeIF4A, 20 uM SYPRO Orange; melt 40-70 C at 1 C/min. As to conditions: protein: recombinant; tags: N-terminal MBP (pMAL-c5X); label: 6-FAM on 42-nt strand (text says 5' end, printed at 3'); BHQ-1 on 24-nt strand (text says 3', printed at 5'); 5' overhang 18 nt on strand 1, 24 bp duplex.

Here are results for two molecules from PMC12313074, “Targeting translation initiation yields fast-killing therapeutics against the zoonotic parasite Cryptosporidium parvum” (PLOS Pathogens, 2025).

In general, Kd refers to the constant that tells how readily two partners part at equilibrium.

In the case of `COc1ccc([C@@]23Oc4cc(OC)cc(OC)c4[C@]2(O)[C@H](O)[C@H](C(=O)N(C)C)[C@H]3c2ccccc2)cc1` [Roc-A, Rocaglamide A], in data set [1], the “cell tolerance (viability) assay, MDR1-overexpressing vs vector HCT-8 cells, rev” value is recorded as “reversed this tolerance in a dose-dependent manner (Fig 1D, bars from 3a to 6b), verifying that Roc-A is an MDR1 substrate”.

B1: 5'-overhanging duplex RNA (42/24 nt) (dsRNA)
RNA 1: CAUUAUCGGAUAGUGGAACCUAGCUUCGACUAUCGGAUAAUC
RNA 2: GAUUAUCCGAUAGUCGAAGCUAGG
For B1, the Kd with MBP-CpeIF4A turned out to be 1.13 µM.
